Data: ChEMBL document CHEMBL6092193, “Identification of furo[2,3-d]pyrimidin-4-ylsulfanyl-1,3,4-thiadiazole derivatives as novel FLT3-ITD inhibitors” (Eur J Med Chem, 2024)
Active and inactive are the calls of the source. No cut-off for these calls is given here.

Assays:
EOL1 = experiment: cells; details: Homo sapiens, EOL1, 72 h
Description: Antiproliferative activity against human EOL1 cells harboring FIP1L1-PDGFRA fusion gene assessed as inhibition of cell growth incubated for 72 hrs by resazurin dye based fluorescence analysis

K562 = experiment: cells; details: Homo sapiens, K562, 72 h
Description: Antiproliferative activity against FLT3-independent human K562 cells assessed as inhibition of cell growth incubated for 72 hrs by resazurin dye based fluorescence analysis

HL-60 [1] = experiment: Induction of cell cycle arrest in human HL-60 cells assessed as proportion of cells at G2/M phase at 16 nM incubated for 24 hrs by PI staining based flow cytometry (reference value: 14.52%); format: functional
Kasumi 1 = experiment: cells; details: Homo sapiens, Kasumi 1, 72 h
Description: Antiproliferative activity against human Kasumi 1 cells harboring KIT N822K mutant assessed as inhibition of cell growth incubated for 72 hrs by resazurin dye based fluorescence analysis

MV4-11 [2] = experiment: Induction of cell cycle arrest in human MV4-11 cells assessed as proportion of cells at G2/M phase at 80 nM incubated for 24 hrs by PI staining based flow cytometry (reference value: 10%); format: functional
[3] = tested on: Receptor-type tyrosine-protein kinase FLT3 (Homo sapiens), P36888 [UNDEFINED MUTATION]; experiment: Inhibition of FLT3-ITD mutant (unknown origin) expressed in mouse BaF3 cells assessed as inhibition of STAT5 phosphorylation at Tyr694 residue at 16 to 2000 nM incubated for 2 hrs by immunoblot analysis; format: cell-based; details: dose lower […], dose upper 2000.0 nM
Sequence of Receptor-type tyrosine-protein kinase FLT3 (Homo sapiens), P36888 [UNDEFINED MUTATION] (P36888 whole entry, looked up, change not shown): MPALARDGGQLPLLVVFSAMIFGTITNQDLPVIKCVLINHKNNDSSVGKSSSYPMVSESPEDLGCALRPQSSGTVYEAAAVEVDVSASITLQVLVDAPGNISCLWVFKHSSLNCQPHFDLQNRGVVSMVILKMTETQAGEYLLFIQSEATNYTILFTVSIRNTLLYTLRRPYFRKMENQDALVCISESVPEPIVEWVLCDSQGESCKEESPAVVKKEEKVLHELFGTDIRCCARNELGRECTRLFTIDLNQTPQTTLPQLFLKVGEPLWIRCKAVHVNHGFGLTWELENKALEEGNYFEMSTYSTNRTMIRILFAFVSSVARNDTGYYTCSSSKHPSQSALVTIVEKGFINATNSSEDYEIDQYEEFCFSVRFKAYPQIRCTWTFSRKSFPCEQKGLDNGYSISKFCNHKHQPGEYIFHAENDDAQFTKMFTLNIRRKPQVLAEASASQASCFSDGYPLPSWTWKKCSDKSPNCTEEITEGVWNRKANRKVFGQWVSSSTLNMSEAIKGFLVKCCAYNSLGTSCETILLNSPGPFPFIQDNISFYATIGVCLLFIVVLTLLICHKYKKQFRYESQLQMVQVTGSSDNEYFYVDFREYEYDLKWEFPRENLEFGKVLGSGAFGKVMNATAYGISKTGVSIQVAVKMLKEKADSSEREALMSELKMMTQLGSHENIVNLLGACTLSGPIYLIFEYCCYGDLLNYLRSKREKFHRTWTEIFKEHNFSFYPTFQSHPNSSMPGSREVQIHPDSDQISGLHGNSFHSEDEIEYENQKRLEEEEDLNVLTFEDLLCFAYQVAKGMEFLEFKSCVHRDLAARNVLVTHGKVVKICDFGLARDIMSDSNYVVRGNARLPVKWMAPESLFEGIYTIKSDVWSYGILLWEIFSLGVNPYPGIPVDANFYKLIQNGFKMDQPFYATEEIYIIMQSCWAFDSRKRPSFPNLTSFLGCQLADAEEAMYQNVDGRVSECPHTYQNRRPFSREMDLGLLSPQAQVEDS

BaF3 [4] = experiment: cells; details: Mus musculus, BaF3, 72 h
Description: Antiproliferative activity against mouse BaF3 cells assessed as inhibition of cell growth incubated for 72 hrs by resazurin dye based fluorescence analysis

HL-60 [5] = experiment: Induction of cell cycle arrest in human HL-60 cells assessed as proportion of cells at G2/M phase at 2000 nM incubated for 24 hrs by PI staining based flow cytometry (reference value: 14.52%); format: functional
MV4-11 [6] = experiment: Induction of cell cycle arrest in human MV4-11 cells assessed as proportion of cells at subG1 phase at 400 nM incubated for 24 hrs by PI staining based flow cytometry (reference value: 10.44%); format: functional
[7] = tested on: Receptor-type tyrosine-protein kinase FLT3 (Homo sapiens), P36888 [UNDEFINED MUTATION]; format: cell-based; details: BaF3, dose lower […], dose upper 2000.0 nM, time 2.0 hrs
[8] = biological target: Receptor-type tyrosine-protein kinase FLT3 (Homo sapiens) (UniProt P36888); experiment: Inhibition of FLT3 in human MV4-11 cells assessed as inhibition of STAT5 phosphorylation at Tyr694 residue incubated for 1 hr by immunoblot analysis; format: cell-based; details: dose lower […], dose upper 2000.0 nM
Sequence of Receptor-type tyrosine-protein kinase FLT3 (Homo sapiens) (P36888 whole entry): as the sequence (P36888 whole entry, looked up, change not shown) above

BaF3 [9] = experiment: cells; details: Mus musculus, BaF3, 72 h; remark: listed apart in the source
HL-60 [10] = experiment: Induction of cell cycle arrest in human HL-60 cells assessed as proportion of cells at subG1 phase at 400 nM incubated for 24 hrs by PI staining based flow cytometry (reference value: 6.94%); format: functional
MV4-11 [11] = experiment: Induction of cell cycle arrest in human MV4-11 cells assessed as proportion of cells at G2/M phase at 400 nM incubated for 24 hrs by PI staining based flow cytometry (reference value: 10%); format: functional
[12] = biological target: High affinity nerve growth factor receptor (Homo sapiens) (UniProt P04629); experiment: Binding affinity to human TrkA (441 to 760 residues) expressed in baculovirus-infected Sf21 cells assessed as residual activity using poly(Glu:Tyr) as substrate in presence of ATP and [gamma-33P]ATP incubated for 30 mins by MRC Protein Phoshorylation and Ubiquitylation Unit based Express Panel assay
Sequence of High affinity nerve growth factor receptor (Homo sapiens) (P04629 33-796 limits assumed): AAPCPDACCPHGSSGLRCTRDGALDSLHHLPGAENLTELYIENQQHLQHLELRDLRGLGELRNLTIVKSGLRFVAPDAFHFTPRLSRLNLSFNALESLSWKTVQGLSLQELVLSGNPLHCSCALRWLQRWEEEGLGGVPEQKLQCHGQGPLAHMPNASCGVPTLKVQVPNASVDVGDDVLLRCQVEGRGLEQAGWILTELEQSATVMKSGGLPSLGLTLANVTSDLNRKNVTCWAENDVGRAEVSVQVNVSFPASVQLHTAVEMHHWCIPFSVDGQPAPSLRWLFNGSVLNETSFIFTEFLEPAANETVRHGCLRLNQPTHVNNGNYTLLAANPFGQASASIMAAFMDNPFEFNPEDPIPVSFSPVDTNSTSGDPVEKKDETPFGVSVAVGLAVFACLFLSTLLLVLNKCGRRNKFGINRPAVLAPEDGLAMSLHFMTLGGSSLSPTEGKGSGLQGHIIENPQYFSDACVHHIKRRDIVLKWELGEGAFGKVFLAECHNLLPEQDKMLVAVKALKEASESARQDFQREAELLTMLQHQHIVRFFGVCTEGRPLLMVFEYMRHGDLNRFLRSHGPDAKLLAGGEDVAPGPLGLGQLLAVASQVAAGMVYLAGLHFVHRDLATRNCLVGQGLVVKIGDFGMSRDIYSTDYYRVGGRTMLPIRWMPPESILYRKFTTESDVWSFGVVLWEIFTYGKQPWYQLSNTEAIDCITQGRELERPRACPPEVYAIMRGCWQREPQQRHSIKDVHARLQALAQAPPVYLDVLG

HL-60 [13] = experiment: Induction of cell cycle arrest in human HL-60 cells assessed as proportion of cells at G1 phase at 80 nM incubated for 24 hrs by PI staining based flow cytometry (reference value: 49.36%); format: functional
HL-60 [14] = experiment: Induction of cell cycle arrest in human HL-60 cells assessed as proportion of cells at G2/M phase at 3.2 nM incubated for 24 hrs by PI staining based flow cytometry (reference value: 14.52%); format: functional
HL-60 [15] = experiment: cells; details: Homo sapiens, HL-60, 72 h
Description: Antiproliferative activity against human HL-60 cells assessed as inhibition of cell growth incubated for 72 hrs by resazurin dye based fluorescence analysis

HL-60 [16] = experiment: Induction of cell cycle arrest in human HL-60 cells assessed as proportion of cells at G1 phase at 400 nM incubated for 24 hrs by PI staining based flow cytometry (reference value: 49.36%); format: functional
MV4-11 [17] = experiment: Induction of cell cycle arrest in human MV4-11 cells assessed as proportion of cells at G2/M phase at 3.2 nM incubated for 24 hrs by PI staining based flow cytometry (reference value: 10%); format: functional
MV4-11 [18] = experiment: Induction of cell cycle arrest in human MV4-11 cells assessed as proportion of cells at G2/M phase at 2000 nM incubated for 24 hrs by PI staining based flow cytometry (reference value: 10%); format: functional
MV4-11 [19] = experiment: Induction of cell cycle arrest in human MV4-11 cells assessed as proportion of cells at subG1 phase at 16 nM incubated for 24 hrs by PI staining based flow cytometry (reference value: 10.44%); format: functional
[20] = tested on: Receptor-type tyrosine-protein kinase FLT3 (Homo sapiens), P36888 [UNDEFINED MUTATION]; format: cell-based; details: BaF3, dose lower […], dose upper 2000.0 nM, time 2.0 hrs; remark: listed apart in the source
MV4-11 [21] = format: functional, Homo sapiens; details: dose 400 nM; time 24 hrs
MOLM-13 = experiment: cells; details: Homo sapiens, MOLM-13, 72 h
HL-60 [22] = experiment: Induction of cell cycle arrest in human HL-60 cells assessed as proportion of cells at S phase at 80 nM incubated for 24 hrs by PI staining based flow cytometry (reference value: 36.12%); format: functional
MV4-11 [23] = experiment: Induction of cell cycle arrest in human MV4-11 cells assessed as proportion of cells at G2/M phase at 16 nM incubated for 24 hrs by PI staining based flow cytometry (reference value: 10%); format: functional
HL-60 [24] = experiment: Induction of cell cycle arrest in human HL-60 cells assessed as proportion of cells at S phase at 16 nM incubated for 24 hrs by PI staining based flow cytometry (reference value: 36.12%); format: functional
[25] = tested on: Receptor-type tyrosine-protein kinase FLT3 (Homo sapiens), P36888 [UNDEFINED MUTATION]; format: cell-based; details: BaF3, dose lower […], dose upper 2000.0 nM, time 2.0 hrs; remark: listed apart in the source
[26] = tested on: Receptor-type tyrosine-protein kinase FLT3 (Homo sapiens), P36888 [UNDEFINED MUTATION]; experiment: Inhibition of FLT3-ITD mutant (unknown origin) expressed in mouse BaF3 cells assessed as inhibition of ERK1/2 phosphorylation at Thr202/Tyr204 residues at 16 to 2000 nM incubated for 2 hrs by immunoblot analysis; format: cell-based; details: dose lower […], dose upper 2000.0 nM
HL-60 [27] = experiment: Induction of cell cycle arrest in human HL-60 cells assessed as proportion of cells at G1 phase at 3.2 nM incubated for 24 hrs by PI staining based flow cytometry (reference value: 49.36%); format: functional
[28] = biological target: Receptor-type tyrosine-protein kinase FLT3 (Homo sapiens) (UniProt P36888); experiment: Inhibition of FLT3 in human MV4-11 cells assessed as inhibition of ERK1/2 phosphorylation at Thr202/Tyr204 residues incubated for 1 hr by immunoblot analysis; format: cell-based; details: dose lower […], dose upper 2000.0 nM
MV4-11 [29] = format: functional, Homo sapiens; details: dose 2000 nM; time 24 hrs
MV4-11 [30] = experiment: Induction of cell cycle arrest in human MV4-11 cells assessed as proportion of cells at S phase at 3.2 nM incubated for 24 hrs by PI staining based flow cytometry (reference value: 25.97%); format: functional
HL-60 [31] = experiment: Induction of cell cycle arrest in human HL-60 cells assessed as proportion of cells at subG1 phase at 16 nM incubated for 24 hrs by PI staining based flow cytometry (reference value: 6.94%); format: functional
HL-60 [32] = experiment: Induction of cell cycle arrest in human HL-60 cells assessed as proportion of cells at subG1 phase at 3.2 nM incubated for 24 hrs by PI staining based flow cytometry (reference value: 6.94%); format: functional
MV4-11 [33] = experiment: Antiproliferative activity against human MV4-11 cells harboring homozygous FLT3-ITD mutant assessed as inhibition of cell growth incubated for 72 hrs by resazurin dye based fluorescence analysis; format: functional

In the case of `COc1ccc(NC(=O)Nc2nnc(Sc3ncnc4oc(-c5ccccc5)cc34)s2)cc1`, the GI50 (EOL1) is reported as 39 nM, the GI50 (K562) is reported as over 10000 nM and the Activity (HL-60 [1]) is reported as 13.57%. For the same compound, the GI50 (Kasumi 1) was 3060 nM, the Activity (MV4-11 [2]) was 1.23% and the inhibition [3] was “Active”. For the same compound, the GI50 (BaF3 [4]) was over 10000 nM, the Activity (HL-60 [5]) was 13.94% and the Activity (MV4-11 [6]) was 32.95%. The inhibition [7] was “Active”, the inhibition [8] was “Dose-dependent-effect” and the GI50 (BaF3 [9]) was 277 nM. For the same compound, the Activity (HL-60 [10]) was 7.9%, the Activity (MV4-11 [11]) was 1.43% and the Activity [12] was under 50%. The Activity (HL-60 [13]) was 49.29%, the Activity (HL-60 [14]) was 13.04% and the GI50 (HL-60 [15]) was over 10000 nM. The Activity (HL-60 [16]) was 50.35%, the Activity (MV4-11 [17]) was 6.22% and the Activity (MV4-11 [18]) was 1.1%. The Activity (MV4-11 [19]) was 16.42%, the inhibition [20] was “Active” and the Activity (MV4-11 [21]) was 94.09%. The GI50 (MOLM-13) was 63 nM, the Activity (HL-60 [22]) was 37.03% and the Activity (MV4-11 [23]) was 2.63%. The Activity (HL-60 [24]) was 37.68%, the inhibition [25] was “Active” and the inhibition [26] was “Active”. The Activity (HL-60 [27]) was 49.95%, the inhibition [28] was “Dose-dependent-effect” and the Activity (MV4-11 [29]) was 93.13%. It also gave an Activity (MV4-11 [30]) of 20.86%, an Activity (HL-60 [31]) of 7.48% and an Activity (HL-60 [32]) of 7.88%. For the same compound, the GI50 (MV4-11 [33]) was 105 nM.
